Assays:
[1] = system: S. Typhimurium SL1344 (sifB::gfp) in RAW 264.7 macrophages; assay: SAFIRE macrophage assay: intracellular bacterial load (GFP signal within macrophages); format: cell-based, Salmonella enterica serotype Typhimurium; conditions: for IC50: Salmonella enterica, TYPHIMURIUM, RAW264.7, read-out: SAFIRE IC50
Method in brief: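 RAW 264.7 macrophages infected with S. Typhimurium SL1344 sifB::gfp (MOI ~30), gentamicin 40 µg/mL, then compound from 2 h to 18 h post-infection. Confocal imaging with MitoTracker and DAPI; toxicity as adherent MitoTracker-positive macrophage count, bacterial load as GFP+ macrophage area.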

S. Typhimurium = assay: Checkerboard growth assays with antibiotics in LPM 5.5 (FICI and MuSyC analyses); format: cell-based; design: Antibiotic MIC Combination: unit not given here; EPM MIC Combination: unit: µM; conditions: for log10(α1) [95% CI] (log-fold-change in potency of EPM due to the antibiotic) / log10(α2) [95% CI] (log-fold-change in potency of the antibiotic due to the EPM) / Βobs [95% CI] (proportion increase in maximal efficacy of the antibiotic): MuSyC fit; for Antibiotic MIC Combination / EPM MIC Combination / FICI value: LPM 5.5
Description: To examine whether the EPM analogs interact additively or synergistically with antibiotics, checkerboard growth assays were carried out in LPM 5.5. We compared three antibiotics (ciprofloxacin, doxycycline, erythromycin) and three EPM analogs (CU032, CU187, CU232) and the EPM35 parent compound (Fig. 6A). Standard fractional inhibitory concentration index (FICI) analyses supported synergy between the EPM analogs and ciprofloxacin (Fig. 6B). Since FICI values cannot distinguish between synergy due to changes in potency (activity) versus efficacy (the extent of the effect) ([42], [43]), we used the MuSyC synergy algorithm to measure EPM-antibiotic synergy ([44], [45]). The data were well fit by the MuSyC equation, with an R^2 of greater than 0.96 for all checkerboards (Table S2). […] Moreover, the consistency in the synergy of potency values across the antibiotics with different EPM analogs points toward a shared mechanism of action: the EPMs could modify the pharmacodynamics of the efflux process and prevent export of specific substrates through interactions with AcrB. We posit that the EPMs differentially reduce antibiotic export resulting in a higher effective intracellular concentration of the antibiotic.
Overnight cation-adjusted MHB-grown cultures of SL1344 or SA10801 were diluted in MHB or LPM 5.5 to an optical density at 600 nm (OD600) of 0.01 and distributed into polystyrene 96-well flat-bottom plates. EPM analogs were added at concentrations up to 300 µM, near the limit of solubility. The antibiotics ciprofloxacin, doxycycline, and erythromycin were added up to concentrations of 2 µM, 2 µM, and 8 µM, respectively. The final DMSO concentration was at or below 2% in all wells. Plates were grown at 37°C with shaking for 18 h and OD600 was monitored (BioTek Synergy H1, BioTek Eon). Each experiment was performed with biological triplicate or higher as indicated. Percent growth was determined by normalizing to OD600 reads in wells containing no D66 or antibiotic. Checkerboards in LPM 5.5 medium were performed with culture grown overnight in LB and diluted to an OD600 of 0.01 in LPM 5.5 and compounds/antibiotics were added as previously described. MuSyC analysis was pursued as previously described ([44], [45]). Briefly, the 2D Hill equation was fit to the normalized growth inhibition data from the checkerboards using a bounded non-linear least square regression algorithm. A Monte Carlo sampling method was used to compute the 95% CI in the parameter fits from three biological replicates. The bounds on the parameters minimal and maximal efficacy of the antibiotics and EPMs (E0,Emax) were [0.99,1.01] and [0,1], respectively ([44], [45]).

[2] = 5 uM compound, n=1, DMSO solvent control = 98, rifampicin 2 μg/mL = 65
[3] = 25 uM compound, n=1, DMSO solvent control = 98, rifampicin 2 μg/mL = 65
[4] = ciprofloxacin (CIPRO) MIC in combination with the EPM
[5] = doxycycline (DOXY) MIC in combination with the EPM
[6] = 25 uM, 'Toxic' given instead of a score

| Structure (SMILES) | 5 uM Avg Antibacterial Score [1, 2] | 25 uM Avg Antibacterial Score [1, 3] | IC50 [1] | log10(α1) [95% CI] (log-fold-change in potency of EPM due to the antibiotic) (S. Typhimurium; Ciprofloxacin) | log10(α2) [95% CI] (log-fold-change in potency of the antibiotic due to the EPM) (S. Typhimurium; Ciprofloxacin) | Βobs [95% CI] (proportion increase in maximal efficacy of the antibiotic) (S. Typhimurium; Ciprofloxacin) | log10(α1) [95% CI] (log-fold-change in potency of EPM due to the antibiotic) (S. Typhimurium; Doxycycline) | log10(α2) [95% CI] (log-fold-change in potency of the antibiotic due to the EPM) (S. Typhimurium; Doxycycline) | Βobs [95% CI] (proportion increase in maximal efficacy of the antibiotic) (S. Typhimurium; Doxycycline) | log10(α1) [95% CI] (log-fold-change in potency of EPM due to the antibiotic) (S. Typhimurium; Erythromycin) | log10(α2) [95% CI] (log-fold-change in potency of the antibiotic due to the EPM) (S. Typhimurium; Erythromycin) | Βobs [95% CI] (proportion increase in maximal efficacy of the antibiotic) (S. Typhimurium; Erythromycin) | Antibiotic MIC Combination (S. Typhimurium; [4]) | Antibiotic MIC Combination (S. Typhimurium; [5]) | EPM MIC Combination (S. Typhimurium; with ciprofloxacin (CIPRO)) | FICI value (S. Typhimurium; with ciprofloxacin (CIPRO)) | EPM MIC Combination (S. Typhimurium; with doxycycline (DOXY)) | FICI value (S. Typhimurium; with doxycycline (DOXY)) | EPM MIC Combination (S. Typhimurium; with erythromycin (ERY)) | FICI value (S. Typhimurium; with erythromycin (ERY)) | also measured |
| --- | --- | --- | --- | --- | --- | --- | --- | --- | --- | --- | --- | --- | --- | --- | --- | --- | --- | --- | --- | --- | --- |
| OC(CN[C@H]1[C@@H]2CNC[C@@H]21)COc1cc(Cl)cc(Cl)c1 (stereo partly drawn) [CU244] | 48 | 19 | 372 nM |  |  |  |  |  |  |  |  |  |  |  |  |  |  |  |  |  |  |
| NC1CCN(CC(O)COc2cccc(C(F)(F)F)c2)CC1 (stereo not drawn) [CU232] | 37 | 21 | 6.9 nM | 0.34 [0.18,0.38] | 1.87 [1.73,1.85] | 0.0 [-0.02,0.03] | 0.14 [-0.23,0.33] | 0.16 [0.06,0.19] | 0.02 [-0.01,0.02] | -0.02 [-0.35,-0.05] | 1.38 [1.11,1.44] | 0.06 [0.05,0.07] | 1 | 2 | 44 | 0.4 | 100 | 0.58 | 100 | 0.58 |  |
| NC1CCN(CC(O)COc2ccc(Cl)c(Cl)c2)C1 (stereo not drawn) [CU032] |  |  | 17.4 nM | 0.0 [-0.42,0.07] | 1.52 [1.32,1.56] | 0.07 [0.05,0.1 ] | -0.06 [-0.3,0.04] | 0.25 [0.17,0.28] | 0.0 [-0.01,0.01] | 0.08 [-0.23,0.05] | 1.11 [0.98,1.11] | 0.04 [0.04,0.07] | 1 | 2 | 30 | 0.35 | 100 | 0.55 | 100 | 0.58 | 5 uM Avg Antibacterial Score ([1]; 5 uM, 'Toxic' given instead of a score): 55; 25 uM Avg Antibacterial Score [1, 6]: 21 |
| OC(COc1ccc(Cl)c(Cl)c1)CN1CCC(Nc2nccc(C(F)(F)F)n2)CC1 (stereo not drawn) [EPM35] |  |  | 3450 nM | 0.58 [0.17,0.77] | -0.12 [-0.22,0.03] | 0.01 [-0.01,0.01] | 0.7 [0.41,0.87] | 0.43 [0.31,0.39] | -0.01 [-0.04,-0.01] | 0.49 [0.15,0.74] | -0.01 [-0.06,0.03] | 0.01 [-0.01,0.01] | 1 | 2 | 150 | 0.7 | 150 | 1 | 150 | 1 | synergy with antibiotics (S. Typhimurium; checkerboards in LPM 5.5): did not synergize with the antibiotics; 25 uM Avg Antibacterial Score [1, 6]: Toxic |

Reference: publication PMC10746280, “Bacterial efflux pump modulators prevent bacterial growth in macrophages and under broth conditions that mimic the host environment” (mBio, 2023)
